Laboratory results: patent US8436160B2, “Isolated DNA fragment of the SPARC human promoter and its use for driving the expression of an heterologous gene in tumor cells” (Consejo Nacional de Investigaciones Cientificas y Tecnicas …, priority 2006, dated 2013)

What was measured:
hMEC-1 cells = test: Ad(I)-F512-TK lytic effect in monolayer with GCV prodrug; type: cell-based, human
Description: (§1) According to the present inventors' hypothesis, normal cells have more resistance to viral replication. In this case, adding a toxic gene would allow for the enhancement of the lytic capability in a specific manner in those cells wherein the SPARC promoter was active. Thus, in vitro assays with Ad(I)-F512-TK were carried out, in which the cells were also treated by adding ganciclovir (GCV) prodrug. […] Other analyzed endothelial cells were those of bovine aorta (BAEC, kindly provided by Helene Sage, Seattle, USA).

BAEC cells = test: as above; type: cell-based, Bovine
Description: as §1

[1] = test system: A375N (melanoma), HeLa (cervix) and T-47D (breast) cell lines; test: Luciferase reporter promoter activity of SPARC promoter fragments; type: cell-based, human; conditions: pGL3 constructs; relative to pGL3-Basic; A375N expresses SPARC, HeLa and T-47D do not
Description: The promoters obtained according to Example 2 were subcloned in the MluI/BglII, MluI/XhoI or NheI/XhoI sites of the pGL3-Basic plasmid (Promega Corp., Madison, Wis., USA) upstream of the luciferase reporter gene. All of the clonings was confirmed by restriction profiles and by sequencing the vectors (pGEM, TOPO and/or pGL3) with the universal primers T7 (TACGACTCACTATAGGG; SEQ ID NO 27); Sp6 (ATTTAGGTGACACTATAG; SEQ ID NO 28), T3 ([…]; SEQ ID NO 29) or P2 ([…]; SEQ ID NO 30) and P3 ([…]; SEQ ID NO 31).
The presence of the luciferase reporter gene allowed for the quantification of SPARC promoter activity in the 11 fragments obtained in Example 2, by measuring the luciferase enzymatic activity. The assay was performed in three cell lines, using the (melanoma) A375N line as a model since it expresses high SPARC levels and the (cervix) HeLa and (breast) T-47D lines, not expressing SPARC, according to the teachings of Example 1 above.
(§2) The cells were seeded in 24-well plates with a density of 4×10^4 cells/well. After 24 hours they were transfected using Lipofectamine2000 (Invitrogen Corp., Carlsbad, Calif.) according to the conditions indicated by the manufacturer. Each treatment was carried out at least in duplicate for each cell line, incubating 0.8 μg of treatment plasmid with 0.1 μg of pRL-CMV plasmid for 5 minutes with 50 μl DMEM medium without antibiotic and simultaneously, 1 μl Lipofectamine2000 with 50 μl of the same medium. These two preparations were mixed and incubated for 20 minutes at room temperature. The medium with cell serum was removed, washed with PBS and 200 μl high glucose DMEM was added without serum and without antibiotics; subsequently, 100 μl medium containing the lipofection mixture was added and 800 μl of culture medium corresponding to each cell line, supplemented with BFS, was added 4 hours later. The cells used were kept in a stove for 46 hours at 37° C. with 5% CO2. The Dual Luciferase Reporter Assay System kit (Promega Corp., Madison, Wis.) was used for the luciferase assay. This system implies the simultaneous expression of two individual reporter enzymes in the same system, allowing for the evaluation of the activity produced by the luciferase enzymes from the Firefly glow-worm (Photinus pyralis) and the Renilla coelenterate (Renilla reniformis) in only one sequential assay (Sherf, B. A. et al., Dual Luciferase Reporter Assay: An Advanced Co-Reporter Technology Integrating Firefly and Renilla Luciferase Assays. Promega Notes Magazine: 2-9, 1996). The data were normalized in the following way:
(§3) The data are expressed as induction amount relative to the activity obtained with the pGL3-Basic control plasmid (without promoter). […]

[2] = test system: different tumor and normal cell lines; test: Luciferase reporter promoter activity, F512 vs Spdel; type: cell-based; conditions: for promoter activity across cell lines vs SPARC expression: melanoma, colon (T84, LoVo), glioma (U87), cervix (HeLa)
Description: as §2, §3
(§4) The two promoters F512 and Spdel, having similar promoter activity and as identified by the method of Example 3A, were assessed in different tumor and normal cell lines (see references in Example 1).

melanoma line MEL888 = test: Luciferase reporter promoter activity; type: cell-based, human
Description: as §2
(§5) The data are expressed as induction amount relative to the activity obtained with the pGL3-Basic control plasmid (without promoter). The pGl3-promoter plasmid (pGL3-prom, Promega Corp., Madison, Wis.) wherein the viral promoter from SV40 drives the expression of the luciferase enzyme, was used as a transfection control.
as §4

SB2 line = test: Luciferase reporter promoter activity; type: cell-based, human
Description: as §2, §5, §4

T84 = test: Luciferase reporter promoter activity; type: cell-based, human
Description: as §2, §5, §4

fibroblast line WI-38 VA = test: Luciferase reporter promoter activity; type: cell-based, human
Description: as §2, §5, §4

endothelium BAEC line = test: Luciferase reporter promoter activity; type: cell-based, Bovine
Description: The cells were seeded in 24-well plates with a density of 4×10^4 cells/well. After 24 hours they were transfected using Lipofectamine2000 (Invitrogen Corp., Carlsbad, Calif.) according to the conditions indicated by the manufacturer. Each treatment was carried out at least in duplicate for each cell line, incubating 0.8 μg of treatment plasmid with 0.1 μg of pRL-CMV plasmid for 5 minutes with 50 μl DMEM medium without antibiotic and simultaneously, 1 μl Lipofectamine2000 with 50 μl of the same medium. These two preparations were mixed and incubated for 20 minutes at room temperature. The medium with cell serum was removed, washed with PBS and 200 μl high glucose DMEM was added without serum and without antibiotics; subsequently, 100 μl medium containing the lipofection mixture was added and 800 μl of culture medium corresponding to each cell line, supplemented with BFS, was added 4 hours later. The cells used were kept in a stove for 46 hours at 37° C. with 5% CO2. […]
as §3, §4

Molecule: Nc1nc(O)c2ncn(COC(CO)CO)c2n1 [GCV, ganciclovir]
- sensitivity of cells to prodrug alone (hMEC-1 cells): sensitive to the presence of the prodrug alone
- sensitivity of cells to prodrug (BAEC cells): sensitive to the prodrug

Molecule: Spdel: complete SPARC promoter −1175/+71 with the 10 bp between the two GGA boxes deleted, SEQ ID NO 18
- promoter activity and specificity (luciferase) [1]: same activity than F512, in the A375N melanoma line
- promoter activity with respect to the empty vector pGL3-Basic ([2]; average, both in tumor and normal lines): 140 times higher
- promoter activity across cell lines vs SPARC expression [2]: same activity in all lines
- promoter activity with respect to the empty vector pGL3-Basic (melanoma line MEL888): 430 times higher

Molecule: −1175/+71: complete human SPARC promoter, SEQ ID NO 17
- promoter activity and specificity (luciferase) [1]: lower promoter activity in melanoma lines

B1: −120/+71: SPARC promoter fragment including the complete first exon, SEQ ID NO 24 (nucleic acid, listed as Homo sapiens)
DNA: GGGAGAAGGAGGAGGCCGGGGGAAGGAGGAGACAGGAGGAGGAGGGACCACGGGGTGGAGGGGAGATAGACCCAGCCCAGAGCTCTGAGTGGTTTCCTGTTGCCTGTCTCTAAACCCCTCCACATTCCCGCGGTCCTTCAGACTGCCCGGAGAGCGCGCTCTGCCTGCCGCCTGCCTGCCTGCCACTGAGG
- promoter activity and specificity (luciferase) [1]: higher unspecificity

B2: F512: human SPARC promoter fragment from base pair −513 to +35, SEQ ID NO 1 (nucleic acid, listed as Homo sapiens)
DNA: GCAGCTTGTCTTGTCTGTACAGTGGTAAGTCCTGGCCTTGCCTTTGTGGCAAATACAACCCCCTTGAATTGCTTGGCCCTTCTCAGCATTGCCTAATATTAGGGAGGACTCCTGTAAAGCTCACTGGTTAGAAGATCAAGACACTTGGGCCTGGTTCTGCCCCTGGGGGCCATTGGGTAATTCCTTGCAGTCTCCAGGCCTCACTTGCCCTCTGAACAAGAAAGAGGCTGTTCTGGGTCATCCCTCCAGGCCTGTCCAGCCCTGGCACTCTGTGAGTCGGTTTAGGCAGCAGCCCCGGAACAGATGAGGCAGGCAGGGTTGGGACGTTTGGTCAGGACAGCCCACCGCAAAAAGAGGAGGAAAGAAATGAAAGACAGAGACAGCTTTGGCTATGGGAGAAGGAGGAGGCCGGGGGAAGGAGGAGACAGGAGGAGGAGGGACCACGGGGTGGAGGGGAGATAGACCCAGCCCAGAGCTCTGAGTGGTTTCCTGTTGCCTGTCTCTAAACCCCTCCACATTCCCGCGGTCCTTCAGACTGCCCGGAGAGC
modifications: DNA fragment of the SPARC human promoter.
- promoter activity and specificity (luciferase) [1]: higher specificity and higher activity in the line expressing SPARC
- promoter activity across cell lines vs SPARC expression [2]: lower activity in those lines with little or null SPARC expression
- promoter activity relative to the activity observed in A375N (SB2 line): approximately ⅓
- promoter activity relative to melanoma lines (T84): half the activity observed for the melanoma lines
- promoter activity (fibroblast line WI-38 VA): active
- promoter activity (endothelium BAEC line): active
